Series [1] deals with nematodes in a dehydrated state. The conditions noted are these: dry soils; cited from earlier work.
In series [2] the test system is plant roots. The series can be described thus: Abamectin applied to soil prior to planting: gall formation, root necrosis, root length. The format is in vivo. On the procedure:
Abamectin at 5 μg or 1 μg was directly applied to soil prior to planting. Alternatively abamectin was loaded into liposomes at either 5 μg or 1 μg and applied to soil prior to planting. Gall formation was detected. […] Therefore, liposomal abamectin formulations enhance root length as compared to non-liposomal abamectin formulations.

The subject of series [3] is Root-Knot larvae (J2). In words: Efficacy of nematicides (Oxamyl, Thiodicarb) in killing Root-Knot larvae (J2) in vitro. In kind it is in vivo, M. incognita. The conditions noted are these: compared with Oxamyl, 200 ug to 10 mg. The method, then: M. incognita eggs collected from tomato cultures by NaOC1 extraction (Hussey and Barker, 1973). Briefly, six to twelve week old infected tomato roots were cut into 1-2 segment. Root segments were shacked vigorously in 200 ml of a 0.5% Na O Cl solution for 4 min. Then, the Na O Cl solution was passed quickly through a 200-mesh (75-um), nested over a 500-mesh sieve to collect freed eggs. The a 500-mesh sieve with eggs was quickly placed under a stream of cold water to remove residual Na O Cl and rinsed several times. About 50 ml aqueous suspension of eggs was collected and number of eggs per unit volume will be counted. The egg suspension was allowed to sit at room temperature for 4 days. The hatching juveniles were collected and used in the subsequent experiments.
Determine the efficient concentration of nematicides (Oxamyl and Thidiocarb) that kill or suppress Root-Knot Larvae.
M. incognita eggs collected from tomato cultures by NaOC1 extraction (Hussey & Barker, Plant Disease Reporter. 57:1025-1028 (1973)). Egg suspension was incubated at room temperature until larvae were hatched (4-5 days). The juveniles (J2) were counted and evaluated for activity/mobility for the duration of the study. Four different concentrations of both nematicides (Oxamyl and Thiodicarb) were used to assess their efficacy in killing the nematodes. These were untreated control, 200 ug, 1 mg, 2 mg, and 10 mg. […]

On to `CBr` [methyl bromide], for which the “tolerated dose compared to active forms in moist soil” value in series [1] is listed as 10 times the lethal dose.

For the molecule abamectin [non-liposomal abamectin], the root necrosis entry in series [2] (1 μg applied to soil prior to planting, FIG. 4) is “most root necrosis followed by the non-liposomal abamectin 1 μg application”. Besides, in series [2] (5 μg applied to soil prior to planting, FIG. 3), the gall formation entry was “most gall formulation followed by the non-liposomal abamectin 5 μg application”. For `CS/C(C)=N\OC(=O)N(C)SN(C)C(=O)O/N=C(\C)SC` [Larvin (Thiodicarb), Thiodicarb], in series [3], the “concentration needed to kill Root-Knot (J2)” value is “required higher concentration to kill Root-Knot (J2)”.
